{"source": "patent US12653896B2", "about": "“Targeted dendrimer conjugates” (Starpharma Pty Ltd, priority 2019, dated 2026)", "key": {"MDA-MB-231 cells [1]": {"tested_on": "MDA-MB-231 cells", "assay": "In vitro association study (flow cytometry, Cy5), MDA-MB-231", "assay_type": "cell-based, human", "conditions": "MDA-MB-231, 3.33 nM, in words", "description": "(§1) MDA-MB-231, MDA-MB-231/HER2 (HER2 knock in) (as described above), or SKOV-3 cells were seeded in a 24-well plate (1×10^5 cells per well) in 500 μL of appropriate growth media with the addition of 10% (v/v) fetal bovine serum (FBS) and incubated with compound 36 or 41 at 3.33 nM, […] atmosphere. After incubation, non-binding/non-associating particles were removed from adherent cells by gently washing with DPBS three times (300 μL/well). Cells were removed from plates by treatment with TrypLE™ Express Enzyme (1×), no phenol red (150 μL/well) for 5-10 min at room temperature. The plates were then placed on ice. Cellular binding and association of sample were then determined through flow cytometry by the acquisition of the signal from Cy5."}, "MDA-MB-231/HER2 cells": {"tested_on": "MDA-MB-231/HER2 cells", "assay": "In vitro association study (flow cytometry, Cy5), MDA-MB-231/HER2", "assay_type": "cell-based, human", "conditions": "MDA-MB-231/HER2, 3.33 nM", "description": "as §1"}, "SKOV-3 cells": {"tested_on": "SKOV-3 cells", "assay": "In vitro association study (flow cytometry, Cy5), SKOV-3", "assay_type": "cell-based, human", "conditions": "SKOV-3, 3.33 nM", "description": "MDA-MB-231, MDA-MB-231/HER2 (HER2 knock in) (as described above), or SKOV-3 cells were seeded in a 24-well plate (1×10^5 cells per well) in 500 μL of appropriate growth media with the addition of 10% (v/v) fetal bovine serum (FBS) and incubated with compound 36 or 41 at 3.33 nM, with incubation time varied from 1 to 24 h at 37° C. in a 5% CO2 humidified atmosphere. After incubation, non-binding/non-associating particles were removed from adherent cells by gently washing with DPBS three times (300 μL/well). Cells were removed from plates by treatment with TrypLE™ Express Enzyme (1×), no phenol red (150 μL/well) for 5-10 min at room temperature. The plates were then placed on ice. Cellular binding and association of sample were then determined through flow cytometry by the acquisition of the signal from Cy5."}, "MDA-MB-231 cells [2]": {"tested_on": "MDA-MB-231 cells", "assay": "Confocal cellular uptake, MDA-MB-231", "assay_type": "cell-based, human", "conditions": "MDA-MB-231, 3.33 nM, 24 h", "description": "MDA-MB-231, MDA-MB-231/HER2 and SKOV-3 cells were plated at 1.0×10^4 cells per well into μ-slide 8 well chambered coverslip (ibidi) and allowed to adhere overnight at 37° C., 5% CO2. compounds 36 and 41 (3.33 nM) were then added and allowed to incubate for 1, 3, 6 and 24 hrs. The cells were washed and then fixed with 1% paraformaldehyde for 20 min at room temperature. The cell membrane was stained with Alexa Fluor 488-wheat germ agglutinin (AF488-WGA, 5 μg mL^−1) in DPBS at room temperature for 10 min. The cell nuclei were counterstained with 4′,6-diamidino-2-phenylindole (DAPI, 2 μg mL^−1) in DPBS at room temperature for 10 min. Fluorescence images and optical sections were collected using a confocal microscope (Leica SP8). Images were processed with Fiji (Image J 1.52n)."}, "ErbB2-ECD": {"biological_target": "T1, ErbB2-ECD (Homo sapiens, UniProt P04626)", "T1 construct": "Direct Immobilization of ErbB2-ECD", "assay": "SPR binding to immobilized ErbB2-ECD", "conditions": "result in words", "description": "Using a ProteOn XPR36 instrument, ErbB2-ECD was immobilized at 25° C. onto a GLC sensor chip surface (Bio-Rad), with HBS-P+ running buffer (10 mM HEPES, pH 7.4, 150 mM NaCl, 0.05% Tween 20). Standard amine coupling methodology described in Bio-Rad's amine coupling kit was utilized for this immobilization. Lane 1 was activated with a 50:50 mixture of EDC (0.5 mM) and sulfo-NHS (0.125 mM). ErbB2 protein was diluted to […] in 10 mM sodium acetate, pH 5.0 and injected over the activated surface channel. Any remaining activated sites were blocked with 1 M ethanolamine-HCl, pH 8.5.\nAll SPR binding experiments were performed at 25° C. using HBS-EP+/BSA (10 mM HEPES, pH 7.4, 150 mM NaCl, 3 mM EDTA, 0.05% Tween20, 0.1 mg/ml BSA) as the instrument running buffer (RB). Following immobilization procedures, various concentrations of anti-ErbB2 affibodies and their MMAE-dendrimer conjugates were injected at 60 μl/min over immobilized ErbB2 proteins and their association monitored for 90 sec. Running buffer was subsequently injected over bound Ab-ErbB2 complexes and dissociation monitored for up to 60 min. […] All binding measurements were performed in triplicate.\nCollected experimental data were processed using Scrubber-Pro software (www.biologic.com.au). […]"}}, "data": [{"substance": "(MeTzPh)PEG4CO-NHPEG24CO—[N(PN)2][Lys]8[((α-NH-Cy5)1-4(α-NH-Glu-Val-Cit-PAB-MMAE)4-7)(ε-NH-COPEG1100)8] [Compound 36]", "values": [{"measurement": "binding over 24 h", "setting": "MDA-MB-231 cells [1]", "value": "minimal binding"}, {"measurement": "Mean fluorescence intensity", "setting": "MDA-MB-231/HER2 cells; 24 h, 37° C.", "value": "16.05±1.89"}, {"measurement": "binding over 24 h", "setting": "MDA-MB-231/HER2 cells; in words", "value": "minimal binding"}, {"measurement": "Mean fluorescence intensity", "setting": "SKOV-3 cells; 24 h, 37° C.", "value": "16.4±6.86"}, {"measurement": "binding over 24 h", "setting": "SKOV-3 cells; in words", "value": "minimal binding"}, {"measurement": "association with cells (confocal)", "setting": "MDA-MB-231 cells [2]", "value": "little"}]}, {"substance": "Azido-PEG24CO—[N(PN)2[Lys]8[(α-NH-Glu-Val-Cit-PAB-MMAE)8(ε-NH-COPEG2000)8] [Compound 21]", "values": [{"measurement": "binding to ErbB2", "setting": "ErbB2-ECD", "value": "No binding"}]}]}
